Laboratory results published in publication PMC4566129, “Factors Governing P-Glycoprotein-Mediated Drug–Drug Interactions at the Blood–Brain Barrier Measured with Positron Emission Tomography” (Molecular Pharmaceutics, 2015).
Where two headings read alike, the source gives them in different places. Marks after values point to notes of the source that are not given here.

What was measured:
ABCB1 [1] = biological target: T1, ABCB1 (Homo sapiens, UniProt P08183); conditions: cited from earlier work
T1 sequence (P08183 whole entry): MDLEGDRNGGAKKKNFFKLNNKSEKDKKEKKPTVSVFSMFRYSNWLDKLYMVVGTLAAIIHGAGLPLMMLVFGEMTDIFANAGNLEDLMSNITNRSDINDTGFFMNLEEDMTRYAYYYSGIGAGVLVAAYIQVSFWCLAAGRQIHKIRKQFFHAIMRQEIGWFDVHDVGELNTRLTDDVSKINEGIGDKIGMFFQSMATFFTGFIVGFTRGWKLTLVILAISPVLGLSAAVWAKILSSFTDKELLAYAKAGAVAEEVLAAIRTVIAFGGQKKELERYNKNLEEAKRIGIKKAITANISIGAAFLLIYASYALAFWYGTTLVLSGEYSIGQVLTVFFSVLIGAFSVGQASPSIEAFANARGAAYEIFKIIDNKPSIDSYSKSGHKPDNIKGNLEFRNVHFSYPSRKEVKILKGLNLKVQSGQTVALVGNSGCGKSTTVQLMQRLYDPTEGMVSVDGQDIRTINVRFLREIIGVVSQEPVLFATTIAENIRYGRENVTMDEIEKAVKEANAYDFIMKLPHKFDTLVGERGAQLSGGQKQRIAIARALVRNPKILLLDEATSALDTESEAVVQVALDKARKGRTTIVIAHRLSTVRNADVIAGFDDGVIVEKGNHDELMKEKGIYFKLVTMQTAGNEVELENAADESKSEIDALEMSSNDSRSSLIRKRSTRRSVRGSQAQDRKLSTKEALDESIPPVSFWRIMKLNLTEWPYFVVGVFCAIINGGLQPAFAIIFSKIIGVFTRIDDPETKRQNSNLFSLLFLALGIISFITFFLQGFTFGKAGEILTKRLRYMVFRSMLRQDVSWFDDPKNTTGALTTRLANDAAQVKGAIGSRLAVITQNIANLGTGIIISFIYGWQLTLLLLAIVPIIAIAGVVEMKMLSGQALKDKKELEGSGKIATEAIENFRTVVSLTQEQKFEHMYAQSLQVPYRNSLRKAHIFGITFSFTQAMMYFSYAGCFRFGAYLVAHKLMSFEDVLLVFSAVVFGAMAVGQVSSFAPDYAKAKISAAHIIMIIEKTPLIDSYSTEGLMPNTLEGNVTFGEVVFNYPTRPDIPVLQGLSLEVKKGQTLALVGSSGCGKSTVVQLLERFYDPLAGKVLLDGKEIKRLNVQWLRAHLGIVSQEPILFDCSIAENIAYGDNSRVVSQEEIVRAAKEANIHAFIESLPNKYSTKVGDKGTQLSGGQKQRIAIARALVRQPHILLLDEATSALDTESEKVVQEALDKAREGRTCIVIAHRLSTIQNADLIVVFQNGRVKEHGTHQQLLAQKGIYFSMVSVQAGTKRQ

Abcb1a/1b = Abcb1a/1b (Mus musculus, UniProt P21447); conditions: for Kp,brain: wild-type FVB/N mice, 25 min after injection
Chain of Abcb1a/1b (P21447 whole entry): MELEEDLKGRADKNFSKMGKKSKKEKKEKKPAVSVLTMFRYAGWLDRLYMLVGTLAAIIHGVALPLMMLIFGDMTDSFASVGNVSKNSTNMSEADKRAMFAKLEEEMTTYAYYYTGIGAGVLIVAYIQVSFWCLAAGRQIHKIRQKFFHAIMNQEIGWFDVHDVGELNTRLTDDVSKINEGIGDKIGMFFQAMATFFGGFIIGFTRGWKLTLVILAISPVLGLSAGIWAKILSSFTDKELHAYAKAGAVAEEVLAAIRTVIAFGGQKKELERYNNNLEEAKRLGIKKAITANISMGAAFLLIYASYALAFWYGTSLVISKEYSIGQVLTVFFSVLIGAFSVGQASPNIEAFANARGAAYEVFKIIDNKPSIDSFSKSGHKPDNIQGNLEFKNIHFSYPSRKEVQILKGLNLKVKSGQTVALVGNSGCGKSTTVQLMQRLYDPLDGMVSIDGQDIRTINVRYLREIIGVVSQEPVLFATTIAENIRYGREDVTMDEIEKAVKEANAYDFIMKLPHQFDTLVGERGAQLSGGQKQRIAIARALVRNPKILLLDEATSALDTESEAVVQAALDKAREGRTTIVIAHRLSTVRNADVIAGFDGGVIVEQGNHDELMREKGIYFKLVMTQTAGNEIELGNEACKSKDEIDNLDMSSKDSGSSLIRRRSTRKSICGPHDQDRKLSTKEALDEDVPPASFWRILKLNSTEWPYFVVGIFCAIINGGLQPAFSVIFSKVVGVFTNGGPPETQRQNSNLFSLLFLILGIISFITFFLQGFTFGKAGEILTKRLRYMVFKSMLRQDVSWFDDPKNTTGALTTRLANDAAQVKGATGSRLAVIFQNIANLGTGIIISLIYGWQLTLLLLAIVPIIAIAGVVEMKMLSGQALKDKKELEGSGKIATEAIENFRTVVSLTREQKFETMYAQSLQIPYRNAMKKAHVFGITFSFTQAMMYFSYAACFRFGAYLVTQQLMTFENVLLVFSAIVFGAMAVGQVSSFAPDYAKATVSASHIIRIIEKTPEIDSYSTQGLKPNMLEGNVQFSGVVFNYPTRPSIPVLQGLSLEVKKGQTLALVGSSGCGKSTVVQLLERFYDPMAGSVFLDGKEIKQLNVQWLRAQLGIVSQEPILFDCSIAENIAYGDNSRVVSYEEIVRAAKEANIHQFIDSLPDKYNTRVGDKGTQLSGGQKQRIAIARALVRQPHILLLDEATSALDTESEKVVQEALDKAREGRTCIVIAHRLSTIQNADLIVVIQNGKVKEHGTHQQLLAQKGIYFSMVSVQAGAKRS
Experimental: Blood and brain were transferred to preweighed tubes and measured for radioactivity in a gamma counter. The measured radioactivity data were corrected for radioactive decay, and Kb,brain values were calculated.

human plasma [2] = assay: Plasma protein binding (ultrafiltration) in human plasma; assay type: in vitro ADME; conditions: without tariquidar
Experimental: (§1) After incubation, plasma aliquots (200 μL) were transferred to the preconditioned Amicon filters, which were centrifuged (12000g, 30 min, 25 °C). Filters and tubes were separately measured in a gamma counter, and the obtained data were decay corrected. Percent plasma protein binding was calculated as percent radioactivity in the filter relative to total radioactivity (filter and tube).

[3] = short anesthesia (5 min), tariquidar 15 mg/kg, 25 min after injection
Experimental: (§8) In one cohort, all procedures were performed in isoflurane anesthetized (1.5–2% in oxygen) animals resulting in a total anesthesia length of 160 min (= long anesthesia). In the second cohort, pretreatment and radiotracer injection were performed in awake animals which were only shortly anesthetized prior to retro-orbital blood sampling, resulting in a total anesthesia length of 5 min (= short anesthesia). […] Blood was centrifuged to obtain plasma, and whole brains were removed. To plasma and homogenized brain tissue were added unlabeled verapamil (10 mg/mL in water, 100 μL) or N-desmethyl-loperamide (10 mg/mL in water/acetonitrile; 1/1, v/v, 100 μL), and proteins were precipitated by the addition of acetonitrile (1 μL per μL of plasma and 0.5 mL per brain). The homogenates were vortexed and then centrifuged (12000g, 5 min, 21 °C). Each supernatant (plasma, brain, 3 μL each) and diluted radiotracer solution as reference were spotted on thin-layer chromatography (TLC) plates (silica gel 60F 254 nm, 20 × 20 cm; Merck, Darmstadt, Germany), and plates were developed in ethyl acetate/triethylamine (9/1, v/v). Detection was performed by placing the TLC plates on multisensitive phosphor screens (PerkinElmer Life Sciences, Waltham, MA). The screens were scanned at 300 dpi resolution using a PerkinElmer Cyclone Plus Phosphor Imager (PerkinElmer Life Sciences).

Abcb1a [4] = assay: PET imaging of radiotracer brain distribution (Kb,brain) in C57BL/6N wild-type, Abcb1a/1b(−/−) and Abcb1a/1b(+/−) mice and tariquidar concentration–response
Experimental: (§2) Animal respiratory rate and body temperature were constantly monitored (SA Instruments Inc., Stony Brook, NY, USA), and the isoflurane level was adjusted (1.5–2% in oxygen) to achieve a constant and sufficient depth of anesthesia. Anesthesia was maintained for the whole pretreatment and imaging period. Following administration, anatomical magnetic resonance imaging (MRI) was performed on a 1 T benchtop MRI (ICON, Bruker BioSpin GmbH, Ettlingen, Germany) using a modified 3D T1-weighted gradient echo sequence (T1-FLASH) and the following imaging parameters: echo time (TE) = 4.7 ms; repetition time (TR) = 27 ms; flip angle (FA) = 25°; field of view (FOV) = 7.6 × 2.6 × 2.4 cm; matrix = 380 × 130; 32 slices; slice thickness = 750 μm; total imaging time = 22 min. Following MRI, the animal bed was transferred into the gantry of a microPET scanner (Focus 220, Siemens Medical Solutions, Knoxville, TN, USA), and a 10 min transmission scan using a ^57Co point source was recorded.
(§3) After completion of the imaging procedure, a terminal blood sample was withdrawn under isoflurane anesthesia from the retro-orbital sinus vein, and the animals were sacrificed by cervical dislocation. Blood was centrifuged (17000g, 4 °C, 4 min) to obtain plasma, and whole brains were removed. […] The measured radioactivity data were corrected for radioactive decay and expressed as standardized uptake value ((radioactivity per g/injected radioactivity) × body weight). The remainder of the plasma samples was stored at −80 °C until measurement of tariquidar plasma concentrations using a previously described combined liquid chromatography tandem mass spectrometry (LC/MS) assay.[17]
(§4) Images were reconstructed using Fourier rebinning of the 3D sonograms followed by two-dimensional filtered back projection with a ramp filter, resulting in an image voxel size of 0.4 × 0.4 × 0.796 mm^3. A standard data correction protocol (normalization, attenuation, and decay correction) was applied to the PET data. The PET units were converted into units of radioactivity concentration by applying a calibration factor derived from imaging of a cylindrical phantom with a known ^11C-radioactivity concentration. Using the image analysis software Amide,[31] whole brain was manually outlined on the PET images, and time–activity curves, expressed in standardized uptake value, were derived.
(§5) Concentration–response relationships were analyzed by nonlinear regression analysis based on a sigmoidal model with variable slope using Prism 6 software.

Abcb1a [5] = biological target: T2, Abcb1a (Mus musculus, UniProt P21447); assay: as above
T2 sequence (P21447 whole entry): as above
Experimental: as §2, §3, §4, §5

C57BL/6N mouse plasma = assay: Plasma protein binding (ultrafiltration) in mouse plasma; assay type: in vitro ADME
Experimental: as §1

Abcb1a [6] = biological target: T2, Abcb1a; conditions: for Kp,brain,VPM or Kp,brain,dLOP fold increase, tariquidar vs vehicle: metabolite corrected; for Kp,brain for unchanged parent tracer (Kp,brain,VPM or Kp,brain,dLOP): 25 min, corrected for radiolabeled metabolites
Experimental: as §8

LLC wild-type cells = LLC wild-type cells (data not shown)
Experimental: (§6) Tariquidar or solvent was added to both compartments. […] To determine membrane integrity, transepithelial electrical resistance (TEER) and, in representative wells, [^14C]mannitol diffusion were measured with criteria for exclusion described earlier.[27]
(§7) Apparent substrate permeability (Papp) from the basolateral to the apical compartment (b–A) and vice versa (a–B) was calculated using the following equation: [drawing 1] where dQ/dt (disintegration/min) is the permeability rate of the substrate into the sample compartment, A the growth area of the monolayer, and C0 the initial substrate concentration in the donor compartment. The transport ratio (TR) was calculated by dividing Papp(b–A) by Papp(a–B). […] With Prism6 software (GraphPad Software, La Jolla, CA, USA) a sigmoidal model with variable slope was used to analyze concentration–response relationships by nonlinear regression.

Abcb1a [7] = biological target: T2, Abcb1a; assay: Bidirectional transport assay in Abcb1a-transfected LLC cells (LLC-Abcb1a) without/with tariquidar; conditions: for IC50: normalized TR over 6 h, estimated by sigmoidal fit
Experimental: LLC-PK1 cells transduced with human MDR1 (LLC-ABCB1) or murine Mdr1a (LLC-Abcb1a) were kindly provided by Prof. P. Borst and Dr. A. Schinkel (The Netherlands Cancer Institute, Amsterdam, The Netherlands).
as §6, §7

ABCB1 [8] = biological target: T1, ABCB1
[9] = Tariquidar plasma concentration at the end of the PET scan (LC/MS); assay type: in vivo, mouse; conditions: 30 mg/kg iv
ABCB1 [10] = system: ABCB1; set-up: method as in PMID 20016890; conditions: rats ref 35; read-out: in vivo IC50 of tariquidar for enhancement of brain distribution of (R)-[11C]verapamil; cited from earlier work
ABCB1 [11] = biological target: T1, ABCB1; assay: cell-based; conditions: ABCB1-transfected LLC cells, normalized TR over 6 h, estimated by sigmoidal fit
human plasma [12] = system: human plasma; set-up: method as in PMID 23340958; conditions: human plasma ref 38; cited from earlier work

Structure (SMILES): CNC(=O)C(CCN1CCC(O)(c2ccc(Cl)cc2)CC1)(c1ccccc1)c1ccccc1 [[^11C]-N-desmethyl-loperamide]
- increase in distribution to the human brain following administration of tariquidar (ABCB1 [1]; humans, compared with PET scans without tariquidar ref 18-21): 2 to 5 times
- Kb,brain fold increase, Abcb1a/1b(−/−) vs wild-type (Abcb1a/1b; awake): 13.8 fold
- Kp,brain fold increase, Abcb1a/1b(−/−) vs wild-type (Abcb1a/1b; awake): 13.7 fold
- Kp,brain (Abcb1a/1b; awake): 0.20 ± 0.05
- Kb,brain fold increase, Abcb1a/1b(−/−) vs wild-type (Abcb1a/1b; isoflurane): 5.7 fold
- Kp,brain fold increase, Abcb1a/1b(−/−) vs wild-type (Abcb1a/1b; isoflurane): 6.0 fold
- Kp,brain (Abcb1a/1b; isoflurane): 0.20 ± 0.04
- percentage of non-protein bound radiotracer (human plasma [2]): 13.9 ± 0.7%
- percentage of unchanged radiotracer in brain [3]: 70 ± 11%
- percentage of unchanged radiotracer in plasma [3]: 18 ± 1%
- percentage of unchanged radiotracer in plasma ([3]; listed as [^11C]-N-Desmethyl-loperamide): 18 ± 1 ^d %
- blood radioactivity concentrations after tariquidar pretreatment compared to vehicle (Abcb1a [4]; C57BL/6N wild-type mice, end of PET scan): increased
- increase in Kb,brain over vehicle treated wild-type mice (Abcb1a [4]; homozygous Abcb1a/1b(−/−) mice): 2.8 fold
- brain-to-blood concentration ratio (Kb,brain) (Abcb1a [4]; vehicle treated homozygous Abcb1a/1b(−/−) mice): 3.93 ± 0.36
- brain-to-blood concentration ratio (Kb,brain) (Abcb1a [5]; heterozygous Abcb1a/1b(+/−) mice): 1.54 ± 0.19
- increase in Kb,brain over vehicle treated wild-type mice (Abcb1a [5]; heterozygous Abcb1a/1b(+/−) mice, not significant): 1.1 fold
- brain-to-blood concentration ratio (Kb,brain) (Abcb1a [5]; vehicle treated C57BL/6N wild-type mice, end of PET scan (50–60 min), total radioactivity): 1.42 ± 0.16
- brain-to-blood concentration ratio (Kb,brain) (Abcb1a [5]; wild-type mice after 30 mg/kg tariquidar iv 2 h before PET): 2.58 ± 0.44
- percentage of non-protein bound radiotracer (C57BL/6N mouse plasma; with tariquidar (2400 nM)): 12.0 ± 1.0%
- percentage of non-protein bound radiotracer (C57BL/6N mouse plasma; without tariquidar): 14.5 ± 1.8%
- Kb,brain fold increase, tariquidar vs vehicle (Abcb1a [6]; long anesthesia (160 min)): 4.0 fold
- Kp,brain fold increase, tariquidar vs vehicle (Abcb1a [6]; long anesthesia (160 min)): 3.7 fold
- Kp,brain,VPM or Kp,brain,dLOP fold increase, tariquidar vs vehicle (Abcb1a [6]; long anesthesia (160 min)): 18.3 fold
- Kp,brain for unchanged parent tracer (Kp,brain,VPM or Kp,brain,dLOP) (Abcb1a [6]; long anesthesia (160 min), tariquidar 15 mg/kg): 7.34 ± 0.58
- Kp,brain for unchanged parent tracer (Kp,brain,VPM or Kp,brain,dLOP) (Abcb1a [6]; long anesthesia (160 min), vehicle): 0.40 ± 0.16
- Kb,brain fold increase, tariquidar vs vehicle (Abcb1a [6]; short anesthesia (5 min)): 7.0 fold
- Kp,brain fold increase, tariquidar vs vehicle (Abcb1a [6]; short anesthesia (5 min)): 6.6 fold
- Kp,brain,VPM or Kp,brain,dLOP fold increase, tariquidar vs vehicle (Abcb1a [6]; short anesthesia (5 min)): 9.6 fold
- Kp,brain for unchanged parent tracer (Kp,brain,VPM or Kp,brain,dLOP) (Abcb1a [6]; short anesthesia (5 min), tariquidar 15 mg/kg): 4.85 ± 0.29 ^b
- Kp,brain for unchanged parent tracer (Kp,brain,VPM or Kp,brain,dLOP) (Abcb1a [6]; short anesthesia (5 min), vehicle): 0.51 ± 0.18

Structure (SMILES): [3H]C([3H])([3H])NC(=O)C(CCN1CCC(O)(c2ccc(Cl)cc2)CC1)(c1ccccc1)c1ccccc1 [[^3H]-N-desmethyl-loperamide]
- transport ratio (TR) (LLC wild-type cells): 1.6 ± 0.03
- transport ratio (TR), Papp(b–A)/Papp(a–B) (Abcb1a [7]; Abcb1a-transfected LLC cells, 5 nM substrate, without tariquidar): 27.6 ± 6.5
- TR relative to TR of [3H]verapamil (Abcb1a [7]; Abcb1a-transfected cells): 8.6 times
- transport ratio (TR), Papp(b–A)/Papp(a–B) (ABCB1 [8]; ABCB1-transfected LLC cells, 5 nM substrate, without tariquidar): 18.5 ± 1.7
- TR relative to TR of [3H]verapamil (ABCB1 [8]; ABCB1-transfected cells): 5 times
- transport ratio relative to [3H]verapamil (ABCB1 [8]; in ABCB1- and Abcb1a-transfected cells (both cell types)): 5 to 9 times

Structure (SMILES): COc1cc2c(cc1OC)CN(CCc1ccc(NC(=O)c3cc(OC)c(OC)cc3NC(=O)c3cnc4ccccc4c3)cc1)CC2 [tariquidar]
- tariquidar plasma concentration (mean ± SD) [9]: 3.508 ± 0.427 µM
- tariquidar plasma concentration (range) [9]: 2802 to 3863 nM
- IC50 (ABCB1 [1]; read-out: in vivo IC50 of tariquidar for enhancement of brain distribution of (R)-[11C]verapamil, humans ref 19): 2.25 µM
- IC50 (ABCB1 [10]): 0.65 µM
- IC50 (ABCB1 [11]; IC50 of tariquidar for inhibition of [3H]-N-desmethyl-loperamide transport): 0.009 µM
- IC50 (ABCB1 [11]; IC50 of tariquidar for inhibition of [3H]verapamil transport): 0.0172 µM
- unbound fraction in human plasma (human plasma [12]): 0.0063
- Hill slope, inhibition of [3H]-N-desmethyl-loperamide transport (Abcb1a [7]; Abcb1a-transfected cells): 1.3
- Hill slope, inhibition of [3H]verapamil transport (Abcb1a [7]; Abcb1a-transfected cells): 2.6
- IC50 (Abcb1a [7]; IC50 of tariquidar for inhibition of [3H]-N-desmethyl-loperamide transport, Abcb1a-transfected LLC cells): 0.006 µM
- IC50 (Abcb1a [7]; IC50 of tariquidar for inhibition of [3H]verapamil transport, Abcb1a-transfected LLC cells): 0.0179 µM
- IC50 (Abcb1a [5]): 1.33 µM
- Hill slope, Kb,brain of (R)-[11C]verapamil vs tariquidar plasma concentration (Abcb1a [5]; C57BL/6N wild-type mice): 2.98
- Hill slope, Kb,brain of [11C]-N-desmethyl-loperamide vs tariquidar plasma concentration (Abcb1a [5]; C57BL/6N wild-type mice): 1.44
- IC50 (Abcb1a [5]; in vivo IC50 of tariquidar (plasma concentration) for increase in Kb,brain of (R)-[11C]verapamil, C57BL/6N wild-type mice, normalized to Abcb1a/1b(−/−) mice): 1.05 µM
- IC50 (Abcb1a [5]; unbound tariquidar in vivo IC50, (R)-[11C]verapamil, mice, in vivo IC50 corrected for plasma protein binding of tariquidar): 0.0066 µM
- IC50 (Abcb1a [5]; unbound tariquidar in vivo IC50, [11C]-N-desmethyl-loperamide, mice, in vivo IC50 corrected for plasma protein binding of tariquidar): 0.0084 µM
- Hill slope, inhibition of [3H]-N-desmethyl-loperamide transport (ABCB1 [8]; ABCB1-transfected cells): 2.1
- Hill slope, inhibition of [3H]verapamil transport (ABCB1 [8]; ABCB1-transfected cells): 10.8
